Test results published in ChEMBL document CHEMBL1800064, “Biaryl ethers as potent allosteric inhibitors of reverse transcriptase and its key mutant viruses: aryl substituted pyrazole as a surrogate for the pyrazolopyridine motif” (Bioorg Med Chem Lett, 2010).

What was measured:
[1] = system: Human immunodeficiency virus 1; assay: Antiviral activity against HIV1 isolate NL4-3 harboring reverse transcriptase V106A/G190A/F227L mutant assessed as inhibition of viral replication by phenoscreen assay in presence of 40% normal human serum; assay type: functional, organism-based; conditions: Human immunodeficiency virus 1, isolate NL4-3
[2] = system: Human immunodeficiency virus 1; assay: Ratio IC50 for HIV1 isolate NL4-3 harboring reverse transcriptase V106A/G190A/F227L mutant to IC50 for HIV1 isolate NL4-3 harboring wild type reverse transcriptase by phenoscreen assay in presence of 40% normal human serum; assay type: functional
[3] = system: Human immunodeficiency virus 1; assay: Antiviral activity against HIV1 isolate NL4-3 harboring reverse transcriptase K103N/V179E double mutant assessed as inhibition of viral replication by phenoscreen assay in presence of 40% normal human serum; assay type: functional, organism-based; conditions: Human immunodeficiency virus 1, isolate NL4-3
[4] = system: Human immunodeficiency virus 1; assay: Antiviral activity against HIV1 isolate NL4-3 harboring reverse transcriptase K103N/Y181C double mutant assessed as inhibition of viral replication by phenoscreen assay in presence of 40% normal human serum; assay type: functional, organism-based; conditions: Human immunodeficiency virus 1, isolate NL4-3
[5] = system: Human immunodeficiency virus 1; assay: Antiviral activity against HIV1 isolate NL4-3 harboring reverse transcriptase Y181C/G190A double mutant assessed as inhibition of viral replication by phenoscreen assay in presence of 40% normal human serum; assay type: functional, organism-based; conditions: Human immunodeficiency virus 1, isolate NL4-3
[6] = system: Human immunodeficiency virus 1; assay: Ratio IC50 for HIV1 isolate NL4-3 harboring reverse transcriptase K103N/P225H double mutant to IC50 for HIV1 isolate NL4-3 harboring wild type reverse transcriptase by phenoscreen assay in presence of 40% normal human serum; assay type: functional
[7] = system: Human immunodeficiency virus 1; assay: Antiviral activity against HIV1 R8 harboring reverse transcriptase K103N mutant infected in human MT4 cells assessed as inhibition of viral spread in presence of 10% fetal bovine serum; assay type: functional; conditions: Human immunodeficiency virus 1, R8, MT4; read-out: CIC95
[8] = system: Human immunodeficiency virus 1; assay: Antiviral activity against HIV1 R8 harboring reverse transcriptase infected in human MT4 cells assessed as inhibition of viral spread in presence of 50% normal human serum; assay type: functional; conditions: Human immunodeficiency virus 1, R8, MT4; read-out: CIC95
[9] = system: Human immunodeficiency virus 1; assay: Antiviral activity against HIV1 isolate NL4-3 harboring reverse transcriptase K101E/Y181C/G190A mutant assessed as inhibition of viral replication by phenoscreen assay in presence of 40% normal human serum; assay type: functional, organism-based; conditions: Human immunodeficiency virus 1, isolate NL4-3
[10] = system: Human immunodeficiency virus 1; assay: Ratio IC50 for HIV1 isolate NL4-3 harboring reverse transcriptase L100I mutant to IC50 for HIV1 isolate NL4-3 harboring wild type reverse transcriptase by phenoscreen assay in presence of 40% normal human serum; assay type: functional
[11] = system: Human immunodeficiency virus 1; assay: Ratio IC50 for HIV1 isolate NL4-3 harboring reverse transcriptase G190A mutant to IC50 for HIV1 isolate NL4-3 harboring wild type reverse transcriptase by phenoscreen assay in presence of 40% normal human serum; assay type: functional
[12] = system: Human immunodeficiency virus 1; assay: Ratio IC50 for HIV1 isolate NL4-3 harboring reverse transcriptase G190S mutant to IC50 for HIV1 isolate NL4-3 harboring wild type reverse transcriptase by phenoscreen assay in presence of 40% normal human serum; assay type: functional
[13] = system: Human immunodeficiency virus 1; assay: Ratio IC50 for HIV1 isolate NL4-3 harboring reverse transcriptase K103N/G190A double mutant to IC50 for wild type HIV1 isolate NL4-3 harboring reverse transcriptase by phenoscreen assay in presence of 40% normal human serum; assay type: functional
[14] = system: Human immunodeficiency virus 1; assay: Antiviral activity against HIV1 isolate NL4-3 harboring reverse transcriptase G190A mutant assessed as inhibition of viral replication by phenoscreen assay in presence of 40% normal human serum; assay type: functional, organism-based; conditions: Human immunodeficiency virus 1, isolate NL4-3
[15] = target: Human immunodeficiency virus type 1 reverse transcriptase (Human immunodeficiency virus 1, UniProt Q72547, K103N); assay: Inhibition of HIV1 reverse transcriptase K103N mutant by SPA assay
[16] = system: Human immunodeficiency virus 1; assay: Ratio IC50 for HIV1 isolate NL4-3 harboring reverse transcriptase Y181C/G190A double mutant to IC50 for HIV1 isolate NL4-3 harboring wild type reverse transcriptase by phenoscreen assay in presence of 40% normal human serum; assay type: functional
[17] = system: Human immunodeficiency virus 1; assay: Ratio IC50 for HIV1 isolate NL4-3 harboring reverse transcriptase K101E/G190A double mutant to IC50 for HIV1 isolate NL4-3 harboring wild type reverse transcriptase by phenoscreen assay in presence of 40% normal human serum; assay type: functional
[18] = system: Human immunodeficiency virus 1; assay: Ratio IC50 for HIV1 isolate NL4-3 harboring reverse transcriptase Y188L mutant to IC50 for HIV1 isolate NL4-3 harboring wild type reverse transcriptase by phenoscreen assay in presence of 40% normal human serum; assay type: functional
[19] = system: Human immunodeficiency virus 1; assay: Ratio IC50 for HIV1 isolate NL4-3 harboring reverse transcriptase K103N/Y181C double mutant to IC50 for HIV1 isolate NL4-3 harboring wild type reverse transcriptase by phenoscreen assay in presence of 40% normal human serum; assay type: functional
[20] = system: Human immunodeficiency virus 1; assay: Antiviral activity against HIV1 isolate NL4-3 harboring reverse transcriptase K103N mutant assessed as inhibition of viral replication by phenoscreen assay in presence of 40% normal human serum; assay type: functional, organism-based; conditions: Human immunodeficiency virus 1, isolate NL4-3
[21] = system: Human immunodeficiency virus 1; assay: Antiviral activity against HIV1 isolate NL4-3 harboring reverse transcriptase K103N/G190A double mutant assessed as inhibition of viral replication by phenoscreen assay in presence of 40% normal human serum; assay type: functional, organism-based; conditions: Human immunodeficiency virus 1, isolate NL4-3
[22] = system: Human immunodeficiency virus 1; assay: Antiviral activity against HIV1 isolate NL4-3 harboring reverse transcriptase K103N/P225H double mutant assessed as inhibition of viral replication by phenoscreen assay in presence of 40% normal human serum; assay type: functional, organism-based; conditions: Human immunodeficiency virus 1, isolate NL4-3
[23] = system: Human immunodeficiency virus 1; assay: Ratio IC50 for HIV1 isolate NL4-3 harboring reverse transcriptase Y181C mutant to IC50 for HIV1 isolate NL4-3 harboring wild type reverse transcriptase by phenoscreen assay in presence of 40% normal human serum; assay type: functional
[24] = system: Human immunodeficiency virus 1; assay: Antiviral activity against HIV1 isolate NL4-3 harboring reverse transcriptase Y188L mutant assessed as inhibition of viral replication by phenoscreen assay in presence of 40% normal human serum; assay type: functional, organism-based; conditions: Human immunodeficiency virus 1, isolate NL4-3
[25] = system: Human immunodeficiency virus 1; assay: Antiviral activity against HIV1 R8 harboring reverse transcriptase Y181C mutant infected in human MT4 cells assessed as inhibition of viral spread in presence of 10% fetal bovine serum; assay type: functional; conditions: Human immunodeficiency virus 1, R8, MT4; read-out: CIC95
[26] = system: Human immunodeficiency virus 1; assay: Antiviral activity against HIV1 isolate NL4-3 harboring reverse transcriptase G190S mutant assessed as inhibition of viral replication by phenoscreen assay in presence of 40% normal human serum; assay type: functional, organism-based; conditions: Human immunodeficiency virus 1, isolate NL4-3
[27] = system: Human immunodeficiency virus 1; assay: Ratio IC50 for HIV1 isolate NL4-3 harboring reverse transcriptase K103N mutant to IC50 for HIV1 isolate NL4-3 harboring wild type reverse transcriptase by phenoscreen assay in presence of 40% normal human serum; assay type: functional
[28] = target: Human immunodeficiency virus type 1 reverse transcriptase (Human immunodeficiency virus 1, UniProt Q72547, Y181C); assay: Inhibition of HIV1 reverse transcriptase Y181C mutant by SPA assay
[29] = system: Human immunodeficiency virus 1; assay: Antiviral activity against HIV1 isolate NL4-3 harboring reverse transcriptase Y181C mutant assessed as inhibition of viral replication by phenoscreen assay in presence of 40% normal human serum; assay type: functional, organism-based; conditions: Human immunodeficiency virus 1, isolate NL4-3
[30] = system: Human immunodeficiency virus 1; assay: Ratio IC50 for HIV1 isolate NL4-3 harboring reverse transcriptase K103N/Y181C/G190A mutant to IC50 for HIV1 isolate NL4-3 harboring wild type reverse transcriptase by phenoscreen assay in presence of 40% normal human serum; assay type: functional
[31] = system: Human immunodeficiency virus 1; assay: Antiviral activity against HIV1 isolate NL4-3 harboring reverse transcriptase K101E/G190A double mutant assessed as inhibition of viral replication by phenoscreen assay in presence of 40% normal human serum; assay type: functional, organism-based; conditions: Human immunodeficiency virus 1, isolate NL4-3
[32] = system: Human immunodeficiency virus 1; assay: Antiviral activity against HIV1 isolate NL4-3 harboring wild type reverse transcriptase assessed as inhibition of viral replication by phenoscreen assay in presence of 40% normal human serum; assay type: functional, organism-based; conditions: Human immunodeficiency virus 1, isolate NL4-3
[33] = system: Human immunodeficiency virus 1; assay: Antiviral activity against HIV1 R8 harboring wild type reverse transcriptase infected in human MT4 cells assessed as inhibition of viral spread in presence of 10% fetal bovine serum; assay type: functional; conditions: Human immunodeficiency virus 1, R8, MT4; read-out: CIC95
[34] = system: Human immunodeficiency virus 1; assay: Antiviral activity against HIV1 isolate NL4-3 harboring reverse transcriptase K103N/Y181C/G190A mutant assessed as inhibition of viral replication by phenoscreen assay in presence of 40% normal human serum; assay type: functional, organism-based; conditions: Human immunodeficiency virus 1, isolate NL4-3
[35] = system: Human immunodeficiency virus 1; assay: Ratio IC50 for HIV1 isolate NL4-3 harboring reverse transcriptase K103N/V179E double mutant to IC50 for HIV1 isolate NL4-3 harboring wild type reverse transcriptase by phenoscreen assay in presence of 40% normal human serum; assay type: functional
[36] = target: Human immunodeficiency virus type 1 reverse transcriptase (Human immunodeficiency virus 1, UniProt Q72547); assay: Inhibition of wild type HIV1 reverse transcriptase by SPA assay
[37] = system: Human immunodeficiency virus 1; assay: Ratio IC50 for HIV1 isolate NL4-3 harboring reverse transcriptase K101E/Y181C/G190A mutant to IC50 for HIV1 isolate NL4-3 harboring wild type reverse transcriptase by phenoscreen assay in presence of 40% normal human serum; assay type: functional
[38] = system: Human immunodeficiency virus 1; assay: Antiviral activity against HIV1 isolate NL4-3 harboring reverse transcriptase L100I mutant assessed as inhibition of viral replication by phenoscreen assay in presence of 40% normal human serum; assay type: functional, organism-based; conditions: Human immunodeficiency virus 1, isolate NL4-3

N#Cc1cc(Cl)cc(Oc2cc(OCc3cc(-c4ccncc4)[nH]n3)ccc2Cl)c1
IC50 [1]: > 1000 nM | Ratio IC50 [2]: >222 | IC50 [3]: 90.2 nM | IC50 [4]: > 1000 nM | IC50 [5]: 131 nM | Ratio IC50 [6]: 7.2 | IC95 [7]: 102 nM | IC95 [8]: 102 nM | IC50 [9]: 332 nM | Ratio IC50 [10]: 4.9 | Ratio IC50 [11]: 5 | Ratio IC50 [12]: 35.7 | Ratio IC50 [13]: 26.6 | IC50 [14]: 22.3 nM | Ki [15]: 4.2 nM | Ratio IC50 [16]: 29.1 | Ratio IC50 [17]: 26.2 | Ratio IC50 [18]: >222 | Ratio IC50 [19]: >222 | IC50 [20]: 19.7 nM | IC50 [21]: 120 nM | IC50 [22]: 32.4 nM | Ratio IC50 [23]: 8 | IC50 [24]: > 1000 nM | IC95 [25]: 278 nM | IC50 [26]: 161 nM | Ratio IC50 [27]: 4.4 | Ki [28]: 4.6 nM | IC50 [29]: 36.2 nM | Ratio IC50 [30]: >222 | IC50 [31]: 118 nM | IC50 [32]: 4.5 nM | IC95 [33]: 25 nM | IC50 [34]: > 1000 nM | Ratio IC50 [35]: 20 | Ki [36]: 0.7 nM | Ratio IC50 [37]: 73.7 | IC50 [38]: 21.9 nM
